According to ChEMBL document CHEMBL6120947, “Synthesis and Antiosteoporotic Characterization of Diselenyl Maleimides: Discovery of a Potent Agent for the Treatment of Osteoporosis by Targeting RANKL” (J Med Chem, 2024):
The source made the active and inactive calls. The rule behind the calls is not given here.

Key:
BMDM [1] = assay: Inhibition of osteoclastogenesis in M-CSF/RANKL-induced osteoclast differentiation in C57BL/6J mouse BMDM cells assessed as decrease in NFATc1 mRNA level at 1 uM measured for 5 days by qRT-PCR analysis; assay type: functional, cell-based; conditions: time 5.0 day
BMDM [2] = assay: Inhibition of osteoclastogenesis in M-CSF/RANKL-induced osteoclast differentiation in C57BL/6J mouse BMDM cells assessed as suppression of multinucleated osteoclasts formation incubated for 6 days by TRAP staining based analysis; assay type: functional, cell-based
BMDM [3] = assay: Inhibition of osteoclastogenesis in M-CSF/RANKL-induced osteoclast differentiation in C57BL/6J mouse BMDM cells assessed as reduction in cathepsin K level measured after 5 days by Western blot analysis; assay type: functional, cell-based; conditions: dose <= 2.0 µM, time 5.0 day
BMDM [4] = assay: Inhibition of osteoclastogenesis in M-CSF/RANKL-induced osteoclast differentiation in C57BL/6J mouse BMDM cells assessed as decrease in c-Fos level at 1 uM measured for 5 days by Western blot analysis; assay type: functional, cell-based; conditions: time 5.0 day
MC3T3-E1 [5] = assay: Effect on osteoblast differentiation in mouse MC3T3-E1 cells assessed as change in Runx2 level at 0.5 to 2 uM incubated for 7 days by Western blot analysis; assay type: functional, cell-based; conditions: dose 0.5-2 µM, time 7.0 day
RAW264.7 [6] = assay: Cytotoxicity against mouse RAW264.7 cells assessed as decrease in cell viability at 1 uM incubated for 48 hrs by MTT assay; assay type: toxicity, cell-based; conditions: raw264.7, 48 h
BMDM [7] = assay: Effect in ERK level in M-CSF/RANKL-induced osteoclast differentiation in C57BL/6J mouse BMDM cells at 1 uM measured upto 60 mins by Western blot analysis; assay type: functional, cell-based
BMDM [8] = assay: Inhibition of osteoclastogenesis in M-CSF/RANKL-induced osteoclast differentiation in C57BL/6J mouse BMDM cells assessed as reduction in ERK phosphorylation at 1 uM measured upto 60 mins by Western blot analysis; assay type: functional, cell-based
BMDM [9] = assay: Inhibition of osteoclastogenesis in M-CSF/RANKL-induced osteoclast differentiation in C57BL/6J mouse BMDM cells assessed as reduction in MMP-9 mRNA level measured after 5 days by qRT-PCR analysis; assay type: functional, cell-based; conditions: dose <= 2.0 µM, time 5.0 day
BMDM [10] = assay: Inhibition of osteoclastogenesis in M-CSF/RANKL-induced osteoclast differentiation in C57BL/6J mouse BMDM cells assessed as suppression of osteoclast nuclei number measured after 7 days by F-actin ring-TRITC phalloidin staining based analysis; assay type: functional, cell-based; conditions: dose <= 2.0 µM, time 7.0 day
MC3T3-E1 [11] = assay: Effect on osteoblast differentiation in mouse MC3T3-E1 cells assessed as change in collagen I mRNA level at 0.5 to 2 uM incubated for 7 days by qRT-PCR analysis; assay type: functional, cell-based; conditions: dose 0.5-2 µM, time 7.0 day
[12] = Toxicity in OVX-induced osteoporosis C57BL/6 mouse model assessed as adverse event at 10 mg/kg, po administered every other day for 8 weeks; assay type: organism-based; conditions: in vivo, 1344 h
[13] = Toxicity in OVX-induced osteoporosis C57BL/6 mouse model assessed as body weight change at 10 mg/kg, po administered every other day for 8 weeks; assay type: organism-based; conditions: in vivo, 1344 h
[14] = Toxicity in OVX-induced osteoporosis C57BL/6 mouse model assessed as pathological change in liver at 10 mg/kg, po administered every other day for 8 weeks by H and E staining based analysis; assay type: organism-based; conditions: in vivo, 1344 h
MC3T3-E1 [15] = assay: Effect on osteoblast differentiation in mouse MC3T3-E1 cells assessed as change in ALP level at 0.5 to 2 uM incubated for 7 days by Western blot analysis; assay type: functional, cell-based; conditions: dose 0.5-2 µM, time 7.0 day
[16] = molecular target: T1, Tumor necrosis factor ligand superfamily member 11 (Homo sapiens) (UniProt O14788); assay: Binding affinity to CM5 sensor chip-immobilized RANKL (unknown origin) by SPR analysis; conditions: dose 0.98-31.25 µM
T1 sequence (whole entry): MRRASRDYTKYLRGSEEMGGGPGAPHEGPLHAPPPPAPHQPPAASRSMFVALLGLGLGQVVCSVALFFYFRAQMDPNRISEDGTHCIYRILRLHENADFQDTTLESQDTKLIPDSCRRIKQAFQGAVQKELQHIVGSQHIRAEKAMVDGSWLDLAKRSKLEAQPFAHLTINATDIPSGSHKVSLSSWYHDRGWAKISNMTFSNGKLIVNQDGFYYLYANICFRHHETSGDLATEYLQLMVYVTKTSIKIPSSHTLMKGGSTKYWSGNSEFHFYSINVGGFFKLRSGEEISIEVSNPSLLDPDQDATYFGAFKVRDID

RAW264.7 [17] = assay: Inhibition of osteoclastogenesis in RANKL-induced osteoclast differentiation in mouse RAW264.7 cells incubated for 4 days by TRAP staining based analysis; assay type: functional, cell-based; conditions: time 4.0 day
MC3T3-E1 [18] = assay: Effect on osteoblast differentiation in mouse MC3T3-E1 cells assessed as change in BMP2 mRNA level at 0.5 to 2 uM incubated for 7 days by qRT-PCR analysis; assay type: functional, cell-based; conditions: dose 0.5-2 µM, time 7.0 day
BMDM [19] = assay: Inhibition of osteoclastogenesis in M-CSF/RANKL-induced osteoclast differentiation in C57BL/6J mouse BMDM cells assessed as reduction in p65 phosphorylation at 1 uM measured upto 60 mins by Western blot analysis; assay type: functional, cell-based
BMDM [20] = assay: Inhibition of osteoclastogenesis in M-CSF/RANKL-induced osteoclast differentiation in C57BL/6J mouse BMDM cells assessed as reduction in p38 phosphorylation at 1 uM measured upto 60 mins by Western blot analysis; assay type: functional, cell-based
[21] = molecular target: T1, Tumor necrosis factor ligand superfamily member 11 (Homo sapiens); assay: Binding affinity to RANKL (unknown origin) incubated for 15 mins by RED-NHS dye based MST assay
Mus musculus [22] = assay: Anti-osteoporosis effect in OVX-induced osteoporosis C57BL/6 mouse model assessed as reduction in bone mass loss in distal femur at 10 mg/kg, po administered every other day for 8 weeks by micro-CT analysis; assay type: functional, organism-based
BMDM [23] = assay: Inhibition of osteoclastogenesis in M-CSF/RANKL-induced osteoclast differentiation in C57BL/6J mouse BMDM cells assessed as reduction in TRAP mRNA level measured after 5 days by qRT-PCR analysis; assay type: functional, cell-based; conditions: dose <= 2.0 µM, time 5.0 day
Mus musculus [24] = assay: Anti-osteoporosis effect in OVX-induced osteoporosis C57BL/6 mouse model assessed as increase in Tb.Th value at 10 mg/kg, po administered every other day for 8 weeks by micro-CT analysis; assay type: functional, organism-based
[25] = Toxicity in OVX-induced osteoporosis C57BL/6 mouse model assessed as pathological change in lung at 10 mg/kg, po administered every other day for 8 weeks by H and E staining based analysis; assay type: organism-based; conditions: in vivo, 1344 h
[26] = Toxicity in OVX-induced osteoporosis C57BL/6 mouse model assessed as pathological change in spleen at 10 mg/kg, po administered every other day for 8 weeks by H and E staining based analysis; assay type: organism-based; conditions: in vivo, 1344 h
Mus musculus [27] = assay: Anti-osteoporosis effect in OVX-induced osteoporosis C57BL/6 mouse model assessed as increase in number of osteoclasts to bone surface area ratio at 10 mg/kg, po administered every other day for 8 weeks by TRAP staining based analysis; assay type: functional, organism-based
BMDM [28] = assay: Inhibition of osteoclastogenesis in M-CSF/RANKL-induced osteoclast differentiation in C57BL/6J mouse BMDM cells at 1 uM measured for 1 to 3 days by TRAP staining based analysis; assay type: functional, cell-based; conditions: time 1-3 day
BMDM [29] = assay: Effect in p65 level in M-CSF/RANKL-induced osteoclast differentiation in C57BL/6J mouse BMDM cells at 1 uM measured upto 60 mins by Western blot analysis; assay type: functional, cell-based

O=C1C([Se]c2ccccc2)=C([Se]c2ccccc2)C(=O)N1Cc1ccccc1
inhibition (BMDM [1]): Active | IC50 (BMDM [2]; 144 h): 360 nM | inhibition (BMDM [2]; dose <= 2.0 µM, time 6.0 day): Dose-dependent-effect | inhibition (BMDM [3]): Dose-dependent-effect | inhibition (BMDM [4]): Active | Activity (MC3T3-E1 [5]): No effect | Activity (RAW264.7 [6]): Non-toxic | Activity (BMDM [7]): No effect | inhibition (BMDM [8]): Active | inhibition (BMDM [9]): Dose-dependent-effect | inhibition (BMDM [10]): Dose-dependent-effect | Activity (MC3T3-E1 [11]): No effect | Activity [12]: Non-toxic | Activity [13]: Non-toxic | Activity [14]: Non-toxic | Activity (MC3T3-E1 [15]): No effect | Activity [16]: Dose-dependent-effect | inhibition (RAW264.7 [17]): Active | Activity (MC3T3-E1 [18]): No effect | inhibition (BMDM [19]): Active | inhibition (BMDM [20]): Active | Activity [21]: 1.51 µM | Activity (Mus musculus [22]): Active; Displayed Similar Effect With That Exhibited By Alendronate | inhibition (BMDM [23]): Dose-dependent-effect | Activity (Mus musculus [24]): Active; Displayed Similar Effect With That Exhibited By Alendronate | Activity [25]: Non-toxic | Activity [26]: Non-toxic | Activity (Mus musculus [27]): Active; Displayed Similar Effect With That Exhibited By Alendronate | inhibition (BMDM [28]): Active | Activity (BMDM [29]): No effect
